Experimental data taken from patent US20210087238A1, “CELL PENETRATING PEPTIDES AND RELATED COMPOSITIONS AND METHODS” (Phylogica Limited, priority 2017, published 2021).
Read-outs that look alike come from different tables or passages of the source. Where a SMILES comes first, the peptide text is derived from it. Where no end group is shown, it is not given here. [ ]: non-standard residue; d: D form.

What was measured:
T47D cells [1] = assay: Cell viability assay of FPP1.1_SpyT variants conjugated to SpyC_PAP, resazurin reduction; type: cell-based; details: 48 h incubation, FIG. 5
Experimental: Cell viability assay on T47D cells of FPP1.1_SpyT peptide compared to retro-inverso (RI) and dimerised variants conjugated to the SpyCatcher_PAP (SpyC_PAP) mitochondriotoxic cargo. T47D cells were seeded at 6×10^3 cells per well and treated the following day with FPP-Toxic cargo conjugates. Following 48 h incubation cell viability was assessed by resazurin reduction potential.
(§1) With the exception of SpyC PAS proteins, conjugations were set up at a SpyCatcher:SpyTag ratio of 1:1.25, with a 40 μM final concentration for the SpyCatcher moiety. SpyC proteins and SpyTag peptides were incubated for 2 h at 22° C. with gentle mixing, and then left at 4° C. overnight. Conjugation efficiencies were analyzed on 4-16% SDS-PAGE gels stained with Gel Code Blue Reagent (Thermo Fisher Scientific). SpyC_PAS proteins were conjugated with SpyTag peptides at ratio 1:1.1, mixed and incubated at room temperature for 30 mins before being stored overnight at 4° C.
(§2) All assays followed manufacturer's instructions.

T47D cells [2] = details: for IC50: 48 h; for delivery of DPMIα, comparison of 10 μM peptide treatments: FIG. 8B, one-way ANOVA; for effect on T47D cell viability of CPP-delivered DPMIα: 48 h incubation, FIG. 8A
Experimental: Cell viability was assessed by resazurin reduction potential after 48 h incubation with peptides. […] Results are representative of 3 independent experiments.
(§3) Cells in were seeded at 2000-6000 cells/well, depending on cell line, in 96-well plates (PAP assays: CHO-K1, 3000 cells/well; peptide cytotoxicity assays: CHO-K1, 5000 cells/well; Bouganin assay: CHO-K1 and CHO-K1 EGFR, 2500 cells/well; ^DPMIα assays: T47D, 5000 cells/well; Omomyc assays: all cell lines, 5000 cells/well). In brief, adherent cells were allowed to attach for 24 h prior to addition of treatments whereas suspension cell lines were treated immediately following seeding. Following 2-48 h incubations with treatments, cell viability was measure by a variety of methods. Membrane integrity was assessed by the release of LDH into the media via the CytoTox-ONE reagent (Promega). Metabolic activity was measured either by resazurin reduction potential using PrestoBlue (LifeTech) or ATP activity using CellTitre-Glo (Promega). All assays followed manufacturer's instructions. IC50 values were calculated using Prism (version 7.0a, GraphPad).
^DPMIα is a small peptide (SEQ ID NO:105), which when conjugated to cationic CPPs can internalize into cells, bind to MDM2 (acting as a dominant negative peptide) and lift p53 suppression causing indiscriminate cytotoxicity (Liu, supra).

CHO-K1 cells [3] = assay: PAP cell viability assay: SpyC_PAP conjugated to CPP_SpyT, resazurin reduction; type: cell-based; details: FIG. 4A
Experimental: as §1, §2
SpyC-PAP/CPP-SpyT complex IC50s were ranked according to potency to determine impact of changes to primary CPP sequence. Sequence variations positively impacting on potency are retained for further optimization, whereas sequence variations deleterious to potency are excluded, thus establishing sequence activity relationships for the CPP peptide. SpyC_BLA/CPP-SpyT complex median cell fluorescence at 4 μM concentration was ranked according to intensity to determine impact of changes to primary CPP sequence. Sequence variations positively impacting on intensity were retained for further optimization, whereas sequence variations deleterious to intensity were excluded, thus establishing sequence activity relationships for the CPP peptide.
For the first readout of functional activity we chose the proapoptotic peptide PAP (SEQ ID NO:61; Ellerby et al 1999, Nat Med, 5, 1032-1038) as a functional cargo and expressed it recombinantly, fused to SpyCatcher (SEQ ID NO:83) (abbreviated as “SpyC_PAP” or “SpyC-PAP”; SEQ ID NO:62) to enable subsequent conjugation with synthetic CPP-SpyTag fusion proteins. Mammalian cells were incubated with SpyC_PAP-CPP protein conjugates, which induce apoptosis if successfully delivered into cells. […] As a representative member of the largest cluster of sequences from the screen, FPP1 was selected for additional optimization studies.

CHO-K1 cells [4] = details: up to 50 μM; for cytotoxicity of peptides alone, cell viability: 24 h and 48 h incubation
Experimental: Cell viability effect on CHO-K1 cells of Phylomer™ CPPs and variants compared to the canonical CPPs TAT and Penetratin following 24 h (A) and 48 h (B) incubation with peptides. Cell viability was assessed by resazurin reduction potential. Membrane integrity of CHO-K1 cells were assessed by LDH release following 2 h (C) and 24 h (D) incubation with peptides. […] Results are representative of 3 independent experiments. Error bars represent standard deviation from the mean of triplicate samples.
as §3
When delivering therapeutics into a cell, it is critical that the delivery molecule itself is not cytotoxic. To assess innate cytotoxicity we tested the effects of FPPs alone on cell viability at 24 h (FIG. 6A) and 48 h (FIG. 6B) after addition of peptides. The effects of FPPs on membrane stability of cells was also assessed in a LDH enzymatic assay, measuring release of LDH from cells into surrounding media at 2 h (FIG. 6C) and 24 h (FIG. 6D) after treatment with peptides.

CHO-K1 cells [5] = assay: β-Lactamase (BLA) bioassay, CCF2-AM cleavage by flow cytometry; type: cell-based; details: SpyC-BLA/CPP-SpyT conjugates; comparator TAT-SpyTag conjugate
Experimental: CHO-K1 cells (seeded at 1×10^5 cells/well in 24-well plates) were incubated with purified SpyC_BLA (SEQ ID NO:90) and SpyC_BLA_FPP1.1 (SEQ ID NO:91) proteins at […]/5% CO2 for 2 hours. Cells were washed, detached by 5 mins incubation with trypsin, washed, loaded with the β-lactamase substrate CCF2-AM and analysed by Flow Cytometry; intracellular β-lactamase activity caused an emission shift from 510 nm to 450 nm. The percentages of β-lactamase positive cells for each sample were graphed against the concentration of protein added to the cells. […]
β-Lactamase is a bacterial enzyme that catalyses the opening of β-lactam rings. […] To address this need, β-Lactamase was expressed as C-terminal SpyC fusion, making SpyC-BLA (SEQ ID NO:90). […]
CCF2-AM (Thermofisher Scientific, Australia) is a Fluorescence Resonance Energy Transfer (FRET) substrate that is enzymatically cleaved by β-Lactamase. […] In the presence of β-Lactamase, the fluorescein moiety of CCF2 is enzymatically cleaved, resulting in the emission wavelength shifting to 447 nm (blue). β-Lactamase activity is quantified by measuring the ratio of blue fluorescence to green fluorescence.
The cell-penetrating and endosomal escape ability of FPP1.1 (SEQ ID NO:39) and sequence variant SpyC-BLA/CCP-SpyT conjugates was assessed by flow cytometry to determine cytosolic CCF2-AM cleavage by internalized β-Lactamase. […]

[6] = system: CHO-K1 cells stably-expressing EGFR receptor; assay: Bouganin assay: FPP_SpyT conjugated to EGFRAffibody_Bouganin_SpyC toxin, matched CHO-K1 lines (±hEGFR); type: cell-based; details: 100 nM toxin; 48 h; CHO-K1 EGFR vs CHO-K1
Experimental: FIG. 9 FPP compatibility with receptor binding delivery (RBD)-mediated delivery and half-life extension by PASylation. (A) a plot showing percent viability of CHO-K1 cells stably-expressing EGFR receptor or (B) CHO-K1 cells were treated with FPP_SpyT conjugated to EGFRAffybody_Bouganin SpyC (EGRFAffbd_Boug_SpyC) toxin. After 48 h incubation cell viability was assessed by resazurin reduction potential. […] Results are representative of 3 independent experiments. Error bars represent standard deviation from the mean of duplicate samples. **P<0.01, ***P<0.001 by one-way ANOVA with Dunnett's multiple comparison test. (C) T47D cells were treated with FPP_PAP_linker_SpyT with and without conjugation to PAS_SpyC recombinant protein. […] Linkers are Cathepsin B FKFL cleavage motif (BF), Cathepsin B Valine-Citrulline cleavage motif (Ba) and Furin RKKR cleavage motif (Fur). Results are representative of 2 independent experiments. Error bars represent standard deviation from the mean of duplicate samples.
as §2

## KKKKQPPKPKKPKTQEKKKKQPPKPKRGASAHIVMVDAYKPTKGASKKKKQPPKPKKPKTQEKKKKQPPKPKR [dimerised FPP1.1]
T47D cells [1]
  IC50: 6.3 µM

## CC(C)C[C@@H](NC(=O)[C@@H](CC(C)C)NC(=O)[C@@H](CCCCN)NC(=O)[C@@H](CCC(=O)O)NC(=O)[C@@H](CC(C)C)NC(=O)[C@@H](CC(N)=O)NC(=O)[C@@H](C)NC(=O)[C@@H](Cc1ccc(O)cc1)NC(=O)[C@@H](Cc1c[nH]c2ccccc12)NC(=O)[C@@H](CC(N)=O)NC(=O)[C@H](NC(=O)[C@H](CO)NC(=O)[C@H](C)NC(=O)CNC(=O)[C@H](CCCNC(=N)N)NC(=O)[C@H](CCCNC(=N)N)NC(=O)[C@H](CCCNC(=N)N)NC(=O)[C@H](CCC(N)=O)NC(=O)[C@H](CCCNC(=N)N)NC(=O)[C@H](CCCNC(=N)N)NC(=O)[C@H](CCCCN)NC(=O)[C@H](CCCCN)NC(=O)[C@H](CCCNC(=N)N)NC(=O)CN)[C@H](C)O)C(=O)N[C@H](CCCNC(=N)N)C(=O)O [TAT_^DPMIα, GRKKRRQRRRGAStnwyanlekllr, reference compound] (H-GRKKRRQRRRGAS[dT][dN][dW][dY][dA][dN][dL][dE][dK][dL][dL][dR]-OH; N-terminus and C-terminus assumed)
T47D cells [2]
  IC50: 36.6 µM

## PLKPKKPKTQEKKKKQPPKPKKPKTQEKKKKQPPKPKR (Amino acid sequence of a Sindbis virus capsid-derived CPP (SVC27)) [FPP1]
CHO-K1 cells [3]; CPP_SpyT conjugated to SpyC_PAP, resazurin
  potency of FPP-delivered PAP conjugate (decrease in CHO-K1 cell viability), order of potency: greatest potency
CHO-K1 cells [3]; compared to TAT or Penetratin-delivered SpyC_PAP
  cell death caused by SpyC-PAP conjugate: significant cell death
T47D cells [2]
  delivery of DPMIα, comparison of 10 μM peptide treatments: significantly improved delivery compared to TAT
  effect on T47D cell viability of CPP-delivered DPMIα: dose dependent decrease in T47D cell viability

## C[C@@H](O)[C@H](NC(=O)[C@H](CCCCN)NC(=O)[C@@H]1CCCN1C(=O)[C@H](CCCCN)NC(=O)[C@H](CCCCN)NC(=O)[C@@H]1CCCN1C(=O)[C@H](CCCCN)NC(=O)[C@@H]1CCCN1C(=O)[C@@H]1CCCN1C(=O)[C@H](CCC(N)=O)NC(=O)[C@H](CCCCN)NC(=O)[C@H](CCCCN)NC(=O)[C@H](CCCCN)NC(=O)[C@@H](N)CCCCN)C(=O)N[C@@H](CCC(N)=O)C(=O)N[C@@H](CCC(=O)O)C(=O)N[C@@H](CCCCN)C(=O)N[C@@H](CCCCN)C(=O)N[C@@H](CCCCN)C(=O)N[C@@H](CCCCN)C(=O)N[C@@H](CCC(N)=O)C(=O)N1CCC[C@H]1C(=O)N1CCC[C@H]1C(=O)N[C@@H](CCCCN)C(=O)N1CCC[C@H]1C(=O)N[C@@H](CCCCN)C(=O)N[C@@H](CCCNC(=N)N)C(=O)O [FPP1.1] (H-KKKKQPPKPKKPKTQEKKKKQPPKPKR-OH)
CHO-K1 cells [4]
  cytotoxicity of peptides alone, cell viability: lack of cytotoxicity
T47D cells [1]
  IC50: 8.7 µM

## PKKPKTQEKKKKQPPK (Amino acid sequence of a Sindbis virus capsid-derived CPP (SAR1)) [FPP1-SAR1]
CHO-K1 cells [5]
  delivery of BLA to the cytosol: ineffective in delivering BLA

## PLKPKKPKTQEKKKKQPPKPKKPKTQEKKKKQPPKPKRGAS[dT][dN][dW][dY][dA][dN][dL][dE][dK][dL][dL][dR] [FPP1_^DPMIα]
T47D cells [2]
  IC50: 9.1 µM
  effect on T47D cell viability of CPP-delivered DPMIα: significantly more cytotoxic than ^DPMIα alone

## KTQEKKKKQPPKPKKPKTQEKKKKQPPKPKR (Amino acid sequence of a Sindbis virus capsid-derived CPP (del1746)) [FPP1-del]
[6]
  delivery of EGFRAffbd_Boug_SpyC toxin, cell viability: significantly improved delivery compared to RBD alone but retains RBD encoded specificity

## GRKKRRQRRR (Amino acid sequence of TAT CPP) [reference compound]
T47D cells [2]
  delivery of DPMIα, comparison of 10 μM peptide treatments: significantly improved compared to DPMIα peptide alone
CHO-K1 cells [4]; 2 h and 24 h incubation
  cytotoxicity of peptides alone, LDH release (membrane integrity): non-toxic
CHO-K1 cells [4]
  cytotoxicity of peptides alone, cell viability: non-toxic
